# Reference: publication PMC9143562, “Hydrophilic CO-Releasing Material of PEGlyated Ruthenium Carbonyl Complex” (Materials, 2022)
# Tests used:
# [1] = cited from earlier work
# [2] = test system: acute hepatic ischemia-reperfusion injury; set-up: method as in PMID 20444253, PMID 21270767; conditions: rats; serum AST/ALT, liver histology score; cited from earlier work
# [3] = human plasma; cited from earlier work
# [4] = logP by flask-shaking method (n-octanol/water, UV-vis); assay type: physicochemical; conditions: for logP: oil-water partition coefficient, n-octanol/water, by UV-vis
# Procedure: To identify the structural features of CO-RMs that govern the CO releasing behaviour, the CO release kinetics of 4–15 were correlated to the corresponding M-CO band and lipophilicity in Table 2. Firstly, the oil-water partition coefficient logP values of complexes were measured by the “flask-shaking” method with n-octanol and water, respectively. […] The water-solubility of these sawhorse ruthenium complexes mainly depend on both the axial glycol amino esters and bridging carboxylate, respectively. […]
# 4. Water-solubility Measured by the ﬂask - shaking method
# The lipophilicity of complexes was measured by the ﬂask- shaking method where n-octanol and ultrapure water were used as the organic and aqueous phase respectively. First, make the pre saturated of oil-water two phase. Then the tested complex was dissolved in the isolated organic phase at a concentration of 1mg/mL, take 2 mL of liquld and 8mL aqueous phase was joined, the mixture was swirled for 12h at room temperature. The solution was then centrifuged, and the amounts of complex in organic layers were determined by UV-vis. Drawing standard curve and determination of oil-water partition coefficient. […]
# 5.4 UV-vis spectra of Lipophilicity (log Po/w)
# Table S3. Stand curve measurement and calculation of Log P
# Entry Standard curve equation Correlation coefficient(R2) […]
# [5] = test system: myoglobin (lyophilised horse heart); test: Photo-activated CO release, myoglobin assay; conditions: CO release half-life, 60 µM CO-RM, LED-UV 365 nm, PBS pH 7.4
# Procedure: The CO release activity of each CO-RM […] was measured with the “golden standard” of myoglobin assay. Firstly, sodium dithionite was added to reduce myoglobin to deoxy-myoglobin (deoxyMb) in PBS (pH = 7.4) at 37.8 °C. A stock solution of CO-RM was added and then activated by LED-UV radiation at 365 nm, releasing CO […]. The change of deoxyMb to carbonmonoxy-myoglobin (MbCO) was monitored by UV-vis spectroscopy. […] The half-lives of CO release rate of 4 at 60 µM is 166 s, 40 µM is 172 s, and 20 µM is 267 s. […]
# 3. CO-Release Measured by Standard Myoglobin Assay
# The release of CO from the metal carbonyl compounds was studied by measuring the conversion of deoxy-myoglobin (deoxy-Mb) to carboxy-myoglobin (Mb-CO). The amount of Mb-CO formed was quantified by measuring the absorbance at 540 nm. […] A 2 mL quantity of this was measured to obtain a deoxy-Mb spectrum and then bubbled with CO to get a Mb-CO spectrum. […] The concentration of myoglobin in the stock solution was calculated from the maximal absorption peak of the Mb-CO solution at 540 nm (Equation 1).
# Equation 1. Equation for calculating total myoglobin concentration in a saturated solution of Mb-CO; ε = extinction coefficient of Mb-CO=15.4 mM-1cm-1, OD540 = absorbance of Mb-CO solution […]
# Intermediate concentrations of Mb-CO are calculated from the OD540. […] The new extinction coefficient was calculated (Equation 2). […]
molecule,measurement,setting,value
"[C-]#[O+].[C-]#[O+].[C-]#[O+].[C-]#[O+].[C-]#[O+].[C-]#[O+].[Cl][Ru][Cl].[Cl][Ru][Cl] [CO-RM-02, [Ru(CO)3Cl2]2]",solubility in aqueous systems,[1],poor solubility
same,effect on acute hepatic ischemia-reperfusion injury,[2],attenuated acute hepatic ischemia-reperfusion injury in rats
"NCC(=O)O.[C-]#[O+].[C-]#[O+].[C-]#[O+].[Cl][Ru] [CO-RM-03, [Ru(CO)3Cl(glycinate)]]",half-life of CO release,[3],3.6 min
[Ru2(CO)4(µ2-ŋ2-O2C-C14H9)2 (ŋ1-NH2CH2C(=O)OCH2CH2OCH3)2] [CO-RM 15],logP,[4],too hydrophobic to be evaluated
[Ru2(CO)4(µ2-ŋ2-O2C-p-ClC6H5)2 (ŋ1-NH2CH2C(=O)OCH2CH2OCH3)2] [CO-RM 13],"t1/2, 60 µM",[5],16.1 min
same,Coctanol,"[4]; concentration in n-octanol phase, UV-vis",0.9201 mmol/L
same,Cwater,[4]; concentration in water phase,0.05055 mmol/L
same,logP,[4],1.26
